Measured values published in PubChem BioAssay AID248 (DTP/NCI, 2004).
Several values for one entry are separate records, joined by “and”; a condition that tells them apart may be missing. Equal entries are not always repeated. Inconclusive results and toxic doses are left out. Rule as the data show it: active = T/C of 150% or more; inactive = T/C below 125%.

Tested on: L1210 leukemia ip in BDF1 mice, survival T/C
Test: NCI In Vivo Anticancer Drug Screen. Data for tumor model L1210 Leukemia (intraperitoneal) in B6D2F1 (BDF1) mice
Details: endpoint: mean survival time, higher = longer survival
Method in brief: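 Antitumor effect is assessed in tumor-bearing animals. Survival in the compound arm is compared with a vehicle-dosed control arm and expressed as their quotient.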

[1] = dose: 100.0 mg/kg/injection, schedule: Q01DX001 (ip), vehicle: saline with Tween-80
[2] = dose: 200.0 mg/kg/injection, schedule: Q01DX001 (ip), vehicle: saline with Tween-80
[3] = dose: 400.0 mg/kg/injection, schedule: Q01DX001 (ip), vehicle: saline with Tween-80
[4] = dose: 100.0 mg/kg/injection, schedule: Q01DX009 (ip), vehicle: saline with Tween-80
[5] = dose: 100.0 mg/kg/injection, schedule: Q04DX003 (ip), vehicle: saline with Tween-80
[6] = dose: 200.0 mg/kg/injection, schedule: Q04DX003 (ip), vehicle: saline with Tween-80
[7] = dose: 400.0 mg/kg/injection, schedule: Q01DX009 (ip), vehicle: saline with Tween-80
[8] = dose: 400.0 mg/kg/injection, schedule: Q04DX003 (ip), vehicle: saline with Tween-80
[9] = dose: 100.0 mg/kg/injection, schedule: Q01DX001 (ip), vehicle: Klucel (hydroxypropylcellulose) (HPC)
[10] = dose: 200.0 mg/kg/injection, schedule: Q01DX001 (ip), vehicle: Klucel (hydroxypropylcellulose) (HPC)
[11] = dose: 100.0 mg/kg/injection, schedule: Q01DX001 (ip), vehicle: saline
[12] = dose: 100.0 mg/kg/injection, schedule: Q01DX009 (ip), vehicle: saline
[13] = dose: 100.0 mg/kg/injection, schedule: Q04DX002 (ip), vehicle: Klucel (hydroxypropylcellulose) (HPC)
[14] = dose: 100.0 mg/kg/injection, schedule: Q04DX002 (ip), vehicle: saline
[15] = dose: 100.0 mg/kg/injection, schedule: Q04DX003 (ip), vehicle: saline
[16] = dose: 200.0 mg/kg/injection, schedule: Q01DX001 (ip), vehicle: saline
[17] = dose: 200.0 mg/kg/injection, schedule: Q01DX009 (ip), vehicle: saline
[18] = dose: 200.0 mg/kg/injection, schedule: Q04DX002 (ip), vehicle: Klucel (hydroxypropylcellulose) (HPC)
[19] = dose: 200.0 mg/kg/injection, schedule: Q04DX002 (ip), vehicle: saline
[20] = dose: 200.0 mg/kg/injection, schedule: Q04DX003 (ip), vehicle: saline
[21] = dose: 400.0 mg/kg/injection, schedule: Q01DX001 (ip), vehicle: saline
[22] = dose: 400.0 mg/kg/injection, schedule: Q01DX009 (ip), vehicle: saline
[23] = dose: 400.0 mg/kg/injection, schedule: Q04DX002 (ip), vehicle: Klucel (hydroxypropylcellulose) (HPC)
[24] = dose: 50.0 mg/kg/injection, schedule: Q01DX001 (ip), vehicle: saline
[25] = dose: 25.0 mg/kg/injection, schedule: Q04DX003 (ip), vehicle: saline
[26] = dose: 50.0 mg/kg/injection, schedule: Q04DX003 (ip), vehicle: saline

Measured: T/C

O=C(Nc1ccccc1)Nc1ccc(Cl)c(Cl)c1
inactive: [1] 95 % of control | dose: 100.0 mg/kg/injection, schedule: Q01DX009 (ip), vehicle: Klucel (hydroxypropylcellulose) (HPC) 101 % of control | dose: 100.0 mg/kg/injection, schedule: Q04DX003 (ip), vehicle: Klucel (hydroxypropylcellulose) (HPC) 107 % of control | [2] 97 % of control | dose: 200.0 mg/kg/injection, schedule: Q01DX009 (ip), vehicle: Klucel (hydroxypropylcellulose) (HPC) 94 % of control | dose: 200.0 mg/kg/injection, schedule: Q04DX003 (ip), vehicle: Klucel (hydroxypropylcellulose) (HPC) 89 % of control | [3] 90 % of control | dose: 400.0 mg/kg/injection, schedule: Q01DX009 (ip), vehicle: Klucel (hydroxypropylcellulose) (HPC) 95 % of control | dose: 400.0 mg/kg/injection, schedule: Q04DX003 (ip), vehicle: Klucel (hydroxypropylcellulose) (HPC) 86 % of control

Cc1cc(OC(=O)Nc2cccc(Cl)c2C)ccc1Cl
inactive: [4] 99 % of control | [5] 93 % of control | dose: 200.0 mg/kg/injection, schedule: Q01DX009 (ip), vehicle: saline with Tween-80 99 % of control | [6] 91 % of control | [7] 89 % of control | [8] 98 % of control

COC1/C=C/OC2(C)Oc3c(C)c(O)c4c(O)c(c(/C=N/N5C(C)CN(Cc6ccc(C)cc6)CC5C)c(O)c4c3C2=O)NC(=O)C(C)=C/C=C/C(C)C(O)C(C)C(O)C(C)C(OC(C)=O)C1C (stereo not given)
inactive: [4] 94 % of control

Cc1ccc(Sc2cccc3c2C(=O)c2c(Sc4ccc(C)cc4)cccc2C3(Br)c2ccccc2)cc1
inactive: [4] 87 % of control | [5] 95 % of control | [6] 97 % of control | [7] 97 % of control | [8] 88 % of control

O=C1CCCCCCCCCC/C1=N/O
inactive: [9] 111 % of control | [10] 101 % of control | dose: 400.0 mg/kg/injection, schedule: Q01DX001 (ip), vehicle: Klucel (hydroxypropylcellulose) (HPC) 92 % of control

O=C(O)c1ccccc1Oc1ccccc1
inactive: [1] 94 % of control | [2] 91 % of control | [3] 91 % of control

CCOC(=O)Cn1c(C)cnc1C
inactive: [11] 112 % of control | [12] 96 % of control and 108 % of control | [13] 107 % of control | [14] 98 % of control | [15] 101 % of control | [16] 104 % of control | [17] 101 % of control and 91 % of control | [18] 100 % of control | [19] 113 % of control | [20] 99 % of control | [21] 98 % of control | [22] 96 % of control and 103 % of control | [23] 111 % of control | dose: 400.0 mg/kg/injection, schedule: Q04DX002 (ip), vehicle: saline 98 % of control | dose: 400.0 mg/kg/injection, schedule: Q04DX003 (ip), vehicle: saline 99 % of control

CNc1ncccn1
inactive: [24] 109 % of control | [11] 103 % of control | [16] 107 % of control | [21] 107 % of control

C=C(Cl)CN1CCCC(=O)c2ccccc21
inactive: [12] 100 % of control | [17] 94 % of control | [22] 96 % of control

C=CC[n+]1ccccc1/C=C/c1ccc(OC)c(OC)c1
inactive: dose: 3.12 mg/kg/injection, schedule: Q01DX009 (ip), vehicle: Klucel (hydroxypropylcellulose) (HPC) 106 % of control | dose: 3.12 mg/kg/injection, schedule: Q04DX003 (ip), vehicle: Klucel (hydroxypropylcellulose) (HPC) 105 % of control | dose: 6.25 mg/kg/injection, schedule: Q01DX009 (ip), vehicle: Klucel (hydroxypropylcellulose) (HPC) 106 % of control | dose: 6.25 mg/kg/injection, schedule: Q04DX003 (ip), vehicle: Klucel (hydroxypropylcellulose) (HPC) 100 % of control | dose: 12.5 mg/kg/injection, schedule: Q01DX009 (ip), vehicle: Klucel (hydroxypropylcellulose) (HPC) 98 % of control | dose: 12.5 mg/kg/injection, schedule: Q04DX003 (ip), vehicle: Klucel (hydroxypropylcellulose) (HPC) 94 % of control and 100 % of control

CCN(CC)CCCNc1cc(C)c(C)cc1[N+](=O)[O-]
inactive: [15] 100 % of control

CC[N+](C)(CC)CCCN(C)C(=O)C(c1ccccc1)c1ccccc1
inactive: dose: 12.5 mg/kg/injection, schedule: Q01DX001 (ip), vehicle: saline 92 % of control | dose: 12.5 mg/kg/injection, schedule: Q04DX003 (ip), vehicle: saline 98 % of control | dose: 25.0 mg/kg/injection, schedule: Q01DX001 (ip), vehicle: saline 103 % of control | [25] 93 % of control | [24] 92 % of control | [26] 93 % of control | dose: 75.0 mg/kg/injection, schedule: Q04DX003 (ip), vehicle: saline 97 % of control

Cc1nccnc1S(=O)(=O)c1ccc2ccccc2c1
inactive: [9] 101 % of control | [10] 97 % of control

CCCCC(=O)N1CCC(C)CC1
inactive: [14] 98 % of control | [19] 91 % of control

O=C1NC(=O)C2=C1SCCS2
inactive: dose: 100.0 mg/kg/injection, schedule: Q04DX002 (ip), vehicle: saline with Tween-80 91 % of control | dose: 200.0 mg/kg/injection, schedule: Q04DX002 (ip), vehicle: saline with Tween-80 109 % of control | dose: 400.0 mg/kg/injection, schedule: Q04DX002 (ip), vehicle: saline with Tween-80 109 % of control

CCC(=O)OC/C=C/c1ccccc1
inactive: [12] 95 % of control | dose: 100.0 mg/kg/injection, schedule: Q04DX003 (ip), vehicle: alcohol 100 % of control | [17] 102 % of control | dose: 200.0 mg/kg/injection, schedule: Q04DX003 (ip), vehicle: alcohol 98 % of control | [22] 95 % of control | dose: 400.0 mg/kg/injection, schedule: Q04DX003 (ip), vehicle: alcohol 94 % of control

O=c1c2cnc3c4cccnc4ccc3c2[nH]n1-c1ccccc1
inactive: [13] 105 % of control | [18] 109 % of control | [23] 98 % of control

OCCOCCN1CCN(C(c2ccccc2)c2ccc(Cl)cc2)CC1 (stereo not given)
inactive: dose: 12.5 mg/kg/injection, schedule: Q01DX009 (ip), vehicle: saline 103 % of control | dose: 25.0 mg/kg/injection, schedule: Q01DX009 (ip), vehicle: saline 103 % of control | [25] 109 % of control | dose: 50.0 mg/kg/injection, schedule: Q01DX009 (ip), vehicle: saline 103 % of control | [26] 96 % of control | [12] 103 % of control | [15] 93 % of control | [20] 90 % of control

CC(C)CSC(SCC(C)C)C(OC(=O)c1ccccc1)C(OC(=O)c1ccccc1)C(COC(=O)c1ccccc1)OC(=O)c1ccccc1 (stereo not given)
inactive: [13] 103 % of control | [18] 94 % of control | [23] 87 % of control
